Where a SMILES comes first, the peptide text is derived from it.
Test system: NCI-H716 cells
Test: Active GLP-1 secretion amount of NCI-H716 cells cultured for one hour with the sample (ELISA)
Assay type: cell-based, Human
Settings: for Amount of Active GLP-1 (relative amount to control as 100), average value / Amount of active GLP-1, relative value (control regarded as 100), average value: 1 h
From the text: As cyclic dipeptides: cyclo(glycyl-tyrosine) [Cyclo(Gly-Tyr)] (CGY) and cyclo(leucyl-phenylalanine) [Cyclo(Leu-Phe)] (CLF), and chemical synthesized preparations were used. Poly-L-Lysine 96-well plates were obtained from Becton Dickinson (BD). PBS (+), an antibiotic substance, Dulbecco's Modified Eagle's Medium (DMEM) and glucose used herein were obtained from Nacalai Tesque Inc.; sucralose, acesulfame potassium and aspartame from Wako Pure Chemical Industries Ltd.; active GLP-1 ELISA kit from Merck Millipore, Fetal bovine serum (FBS) from Sigma; and Sitagliptin phosphate from SantaCruz Biotechnology. Human intestinal cell strain, NCI-H716 cells used herein were provided by ATCC.
NCI-H716 cells, which were suspended in DMEM culture medium (containing 10% FBS, 2 mM glutamine, 1% antibiotic substance), were seeded in Poly-L-Lysine 96-well plates in an amount of 100 μL for each so as to contain 0.5×10^5 cells/well and cultured in a CO2 incubator (manufactured by ESPEC CORP.) for 48 hours.
Sweetening agent solutions were prepared each by adding a sweetening agent to PBS (+). In the case of glucose, a concentration was set at 3%, sucralose at 0.6%, acesulfame potassium at 0.3%, and aspartame at 0.3%. A cyclic dipeptide was dissolved in DMSO and then added to each of sweetening agent solutions so as to obtain final concentrations shown in Table 1 and Table 2. Note that, all cell addition solutions were prepared such that DMSO (0.1%) and a 10 μM Sitagliptin phosphate were contained.
After the cells were washed once with PBS (+), a reaction solution was added to the cells. One hour later, the solution added was recovered. Thereafter, the amount of active GLP-1 in the solution recovered was measured by using the ELISA kit. Analysis was carried out using relative values to the amount of active GLP-1 (regarded as 100) in a (sample) group to which neither sweetening agent nor cyclic dipeptide were added.
NCI-H716 cells, which were suspended in DMEM culture medium (containing 10% FBS, 2 mM glutamine, 1% antibiotic substance) were seeded in Poly-L-Lysine 96-well plates in an amount of 100 μL for each so as to contain 0.5×10^5 cells/well and cultured in an CO2 incubator (manufactured by ESPEC CORP.) for 48 hours. After the cells were washed with PBS (+), a PBS (+) solution already containing 10 μM Sitagliptin phosphate was controlled such that the final concentration of stevioside or RebA was 0.01%, and the final concentration of Cyclo(Leu-Phe) was 0.02 μg/mL or 2 μg/mL. The PBS (+) solution (100 μL) was individually added to the NCI-H716 cells. One hour later, the solution added was recovered and the amount of active GLP-1 in the solution was measured by the ELISA kit. Analysis was carried out based on relative values to the amount of active GLP-1 (regarded as 100) in a (sample) group to which neither a steviol glycoside not Cyclo(Leu-Phe) were added
The experiment was carried out in accordance with Example 2. A PBS (+) solution already containing 10 μM Sitagliptin phosphate was controlled such that the final concentration of RebD was 0.01%, and the final concentration of Cyclo(Gly-Tyr) was 0.01 μg/mL or 1 μg/mL. The PBS (+) solution (100 μL) was individually added to the NCI-H716 cells.
NCI-H716 cells, which were suspended in DMEM culture medium (containing 10% FBS, 2 mM glutamine, 1% antibiotic substance), were seeded in Poly-L-Lysine 96-well plates in an amount of 100 μL for each so as to add 0.5×10^5 cells/well and cultured in an CO2 incubator (manufactured by ESPEC CORP.) for 48 hours. After the cells were washed with PBS (+), a PBS (+) solution already containing 10 μM Sitagliptin phosphate was controlled such that the final concentration of stevioside, RebA or RebB was 0.001, 0.01 or 0.1%. The PBS (+) solution (100 μL) controlled such that the final concentration of RebC or RebD was 0.001 or 0.01% was added to the cells.

[1] = Example 4, steviol glycoside alone, 0.001 to 0.1% (RebC, RebD 0.001 or 0.01%)
[2] = Table 3, steviol glycoside 0.01% alone
[3] = Table 4, steviol glycoside 0.01% alone
[4] = Table 5, final concentration 0.001%
[5] = Table 5, final concentration 0.01%
[6] = Table 5, final concentration 0.1%
[7] = steviol glycoside alone at a concentration of 0.01%

cyclo(leucyl-phenylalanine) [Cyclo(Leu-Phe)]
Amount of Active GLP-1 (relative amount to control as 100), average value (Table 3, Cyclo(Leu-Phe) 0.02 μg/mL alone): 65.1 | Amount of Active GLP-1 (relative amount to control as 100), average value (Table 3, Cyclo(Leu-Phe) 2 μg/mL alone): 59.9 | Amount of Active GLP-1 (relative amount to control as 100), average value (Table 4, head prints Cyclo(Leu-Phe) 1 μg/mL alone): 59.9

C=C1C[C@@]23CC[C@H]4[C@@](C)(CCC[C@@]4(C)C(=O)O[C@@H]4O[C@H](CO)[C@@H](O)[C@H](O)[C@H]4O)[C@@H]2CC[C@]1(O[C@@H]1O[C@H](CO)[C@@H](O)[C@H](O)[C@H]1O[C@@H]1O[C@H](CO)[C@@H](O)[C@H](O)[C@H]1O)C3 [Stevioside, stevioside]
GLP-1 secretion-accelerating action (in words) [1]: GLP-1 secretion-accelerating action can be obtained | Amount of Active GLP-1 (relative amount to control as 100), average value [2]: 62.7 | Amount of Active GLP-1 (relative amount to control as 100), average value [3]: 62.7 | Amount of Active GLP-1 (relative amount to control as 100), average value [4]: 104.9 | Amount of Active GLP-1 (relative amount to control as 100), average value [5]: 91.3 | Amount of Active GLP-1 (relative amount to control as 100), average value [6]: 160.9 | GLP-1 secretion-accelerating action (in words) [7]: not accelerated

rebaudioside C [RebC]
GLP-1 secretion-accelerating action (in words) [1]: GLP-1 secretion-accelerating action was not observed | Amount of Active GLP-1 (relative amount to control as 100), average value [4]: 52.8 | Amount of Active GLP-1 (relative amount to control as 100), average value [5]: 55.0

OC[C@H]1O[C@H](O[C@]2(CCl)O[C@H](CCl)[C@@H](O)[C@@H]2O)[C@H](O)[C@@H](O)[C@H]1Cl [Sucralose, sucralose]
Amount of active GLP-1, relative value (control regarded as 100), average value (Table 1, sucralose 0.6% alone): 206 | Amount of active GLP-1, relative value (control regarded as 100), average value (Table 2, sucralose 0.6% alone): 233

COC(=O)[C@H](Cc1ccccc1)NC(=O)[C@@H](N)CC(=O)O [Aspartame, aspartame] (H-Asp-Phe-OMe)
Amount of active GLP-1, relative value (control regarded as 100), average value (Table 1, aspartame 0.3% alone): 112 | Amount of active GLP-1, relative value (control regarded as 100), average value (Table 2, aspartame 0.3% alone): 129

C=C1C[C@@]23CC[C@H]4[C@@](C)(CCC[C@@]4(C)C(=O)O[C@@H]4O[C@H](CO)[C@@H](O)[C@H](O)[C@H]4O)[C@@H]2CC[C@]1(O[C@@H]1O[C@H](CO)[C@@H](O)[C@H](O[C@@H]2O[C@H](CO)[C@@H](O)[C@H](O)[C@H]2O)[C@H]1O[C@@H]1O[C@H](CO)[C@@H](O)[C@H](O)[C@H]1O)C3 [RebA, rebaudioside A]
GLP-1 secretion-accelerating action (in words) [1]: GLP-1 secretion-accelerating action can be obtained | Amount of Active GLP-1 (relative amount to control as 100), average value [2]: 72.6 | Amount of Active GLP-1 (relative amount to control as 100), average value [3]: 72.6 | Amount of Active GLP-1 (relative amount to control as 100), average value [4]: 92.8 | Amount of Active GLP-1 (relative amount to control as 100), average value [5]: 129.3 | Amount of Active GLP-1 (relative amount to control as 100), average value [6]: 150.9 | GLP-1 secretion-accelerating action (in words) [7]: not accelerated

cyclo(glycyl-tyrosine) [Cyclo(Gly-Tyr)]
Amount of Active GLP-1 (relative amount to control as 100), average value (Table 4, Cyclo(Gly-Tyr) 0.01 μg/mL alone): 65.1

rebaudioside B [RebB]
GLP-1 secretion-accelerating action (in words) [1]: GLP-1 secretion-accelerating action can be obtained | Amount of Active GLP-1 (relative amount to control as 100), average value [4]: 82.0 | Amount of Active GLP-1 (relative amount to control as 100), average value [5]: 70.5 | Amount of Active GLP-1 (relative amount to control as 100), average value [6]: 151.2

CC1=CC(=O)NS(=O)(=O)O1 [Acesulfame K, acesulfame potassium]
Amount of active GLP-1, relative value (control regarded as 100), average value (Table 1, acesulfame K 0.3% alone): 125 | Amount of active GLP-1, relative value (control regarded as 100), average value (Table 2, acesulfame K 0.3% alone): 145

C=C1C[C@@]23CC[C@H]4[C@@](C)(CCC[C@@]4(C)C(=O)O[C@@H]4O[C@H](CO)[C@@H](O)[C@H](O)[C@H]4O[C@@H]4O[C@H](CO)[C@@H](O)[C@H](O)[C@H]4O)[C@@H]2CC[C@]1(O[C@@H]1O[C@H](CO)[C@@H](O)[C@H](O[C@@H]2O[C@H](CO)[C@@H](O)[C@H](O)[C@H]2O)[C@H]1O[C@@H]1O[C@H](CO)[C@@H](O)[C@H](O)[C@H]1O)C3 [RebD, rebaudioside D]
GLP-1 secretion-accelerating action (in words) [1]: GLP-1 secretion-accelerating action can be obtained | Amount of Active GLP-1 (relative amount to control as 100), average value [4]: 63.1 | Amount of Active GLP-1 (relative amount to control as 100), average value [5]: 170.0 | GLP-1 secretion-accelerating action (in words) [7]: not accelerated
